We go through 4 compounds from ChEMBL document CHEMBL4118101 (Bioorg Med Chem, 2018).

Converted amounts (≈) assume the structure as drawn.

In assay [1] the test system is Cryptococcus neoformans. The experiment in a line: Antifungal activity against Cryptococcus neoformans isolate CN2 measured after 48 hrs by CLSI M27-A3 protocol based method. The assay is classed as functional.
For assay [2], the system named is Candida albicans. The experiment in a line: Antifungal activity against Candida albicans ATCC 10231 measured after 48 hrs by CLSI M27-A3 protocol based method. The assay is classed as functional. The following applies: ATCC 10231, 48 h.
Assay [3] relates to Candida albicans. The experiment in a line: Antifungal activity against Candida albicans ATCC 64124 measured after 48 hrs by CLSI M27-A3 protocol based method. It counts as functional.
Assay [4] relates to Candida albicans. The experiment in a line: Antifungal activity against fluconazole/ITC-susceptible Candida albicans ATCC MYA-2876 measured after 48 hrs by CLSI M27-A3 protocol based method. The assay is classed as functional. The settings on record: for MIC: Candida albicans, ATCC MYA-2876, 48 h.
The test system of assay [5] is Candida albicans. The experiment in a line: Antifungal activity against fluconazole/ITC-resistant Candida albicans ATCC 90819 measured after 48 hrs by CLSI M27-A3 protocol based method. It counts as functional.
Assay [6] deals with Candida albicans. The experiment in a line: Antifungal activity against fluconazole/ITC-susceptible Candida albicans ATCC MYA-2310 measured after 48 hrs by CLSI M27-A3 protocol based method. It counts as functional.
Assay [7] deals with Candida albicans. The experiment in a line: Antifungal activity against fluconazole/ITC-resistant Candida albicans ATCC MYA-1237 measured after 48 hrs by CLSI M27-A3 protocol based method. The assay is classed as functional. The following applies: Candida albicans, ATCC MYA-1237, 48 h; read-out: MIC.
Assay [8] deals with Candida albicans. The experiment in a line: Antifungal activity against fluconazole/ITC-resistant Candida albicans ATCC MYA-1003 measured after 48 hrs by CLSI M27-A3 protocol based method. It counts as functional. The settings on record: Candida albicans, ATCC MYA-1003, 48 h; read-out: MIC.
For assay [9], the system named is Nakaseomyces glabratus. The experiment in a line: Antifungal activity against Candida glabrata ATCC 2001 measured after 48 hrs by CLSI M27-A3 protocol based method. It counts as functional, CBS 138.
The test system of assay [10] is Pichia kudriavzevii. The experiment in a line: Antifungal activity against Candida krusei ATCC 6258 measured after 48 hrs by CLSI M27-A3 protocol based method. The settings on record: for MIC: Pichia kudriavzevii, ATCC 6258, 48 h. It counts as functional.
Assay [11] concerns Candida parapsilosis. The experiment in a line: Antifungal activity against Candida parapsilosis ATCC 22019 measured after 48 hrs by CLSI M27-A3 protocol based method. The following applies: for MIC: Lodderomyces parapsilosis, ATCC 22019, 48 h. The assay is classed as functional.
The test system of assay [12] is Aspergillus nidulans. The experiment in a line: Antifungal activity against Aspergillus nidulans ATCC 38163 measured after 48 hrs by CLSI M38-A2 protocol based method. It counts as functional. The following applies: ATCC 38163, 48 h.
The test system of assay [13] is Aspergillus flavus. The experiment in a line: Antifungal activity against Aspergillus flavus ATCC MYA-3631 measured after 48 hrs by CLSI M38-A2 protocol based method. The settings on record: ATCC MYA-3631, 48 h. It counts as functional.
The subject of assay [14] is Aspergillus terreus. The experiment in a line: Antifungal activity against Aspergillus terreus ATCC MYA-3633 measured after 48 hrs by CLSI M38-A2 protocol based method. The assay is classed as functional. The settings on record: ATCC MYA-3633, 48 h.
For assay [15], the system named is Nakaseomyces glabratus. The experiment in a line: Antifungal activity against Candida glabrata isolate CG1 measured after 48 hrs by CLSI M27-A3 protocol based method. It counts as functional.
Assay [16] relates to Nakaseomyces glabratus. The experiment in a line: Antifungal activity against Candida glabrata isolate CG2 measured after 48 hrs by CLSI M27-A3 protocol based method. The assay is classed as functional.
Assay [17] has as its system Nakaseomyces glabratus. The experiment in a line: Antifungal activity against Candida glabrata isolate CG3 measured after 48 hrs by CLSI M27-A3 protocol based method. The assay is classed as functional.
Assay [18] concerns Candida parapsilosis. The experiment in a line: Antifungal activity against Candida parapsilosis isolate CP1 measured after 48 hrs by CLSI M27-A3 protocol based method. It counts as functional. The settings on record: for MIC: Lodderomyces parapsilosis, isolate CP1, 48 h.
In assay [19] the test system is Candida parapsilosis. The experiment in a line: Antifungal activity against Candida parapsilosis isolate CP2 measured after 48 hrs by CLSI M27-A3 protocol based method. It counts as functional. The following applies: for MIC: Lodderomyces parapsilosis, isolate CP2, 48 h.
Assay [20] deals with Cryptococcus neoformans. The experiment in a line: Antifungal activity against Cryptococcus neoformans isolate CN1 measured after 48 hrs by CLSI M27-A3 protocol based method. It counts as functional. The settings on record: isolate CN1, 48 h.
Assay [21] deals with Cryptococcus neoformans. The experiment in a line: Antifungal activity against Cryptococcus neoformans isolate CN3 measured after 48 hrs by CLSI M27-A3 protocol based method. The assay is classed as functional.
Assay [22] has as its system Candida parapsilosis. The experiment in a line: Antifungal activity against Candida parapsilosis isolate CP3 measured after 48 hrs by CLSI M27-A3 protocol based method. The assay is classed as functional. The following applies: for MIC: Lodderomyces parapsilosis, isolate CP3, 48 h.
[23] abbreviates: Cryptococcus neoformans, isolate CN2, 48 h, read-out: MIC.
Setting [24] is: Candida albicans, ATCC 64124, 48 h, read-out: MIC.
[25] abbreviates: Candida albicans, ATCC 90819, 48 h, read-out: MIC.
Where [26] appears, read: Candida albicans, ATCC MYA-2310, 48 h, read-out: MIC.
The mark [27] stands for this setting: Nakaseomyces glabratus, CBS 138, 48 h, read-out: MIC.
The mark [28] stands for this setting: Nakaseomyces glabratus, 48 h, read-out: MIC.
Where [29] appears, read: Nakaseomyces glabratus, isolate CG2, 48 h, read-out: MIC.
[30] abbreviates: Cryptococcus neoformans, isolate CN3, 48 h, read-out: MIC.

Consider `OC(CNC1CCCCCCC1)(Cn1cncn1)c1ccc(F)cc1F` (stereo unspecified), for which the MIC in assay [1] (setting [23]) is above 85.8 µM; in assay [2], 85.8 µM (≈ 31.3 µg/mL); in assay [3] (setting [24]) it was 85.8 µM (≈ 31.3 µg/mL); in assay [4], above 85.8 µM; in [5] (setting [25]) it was 85.8 µM (≈ 31.3 µg/mL); in assay [6] (setting [26]), 10.7 to 85.8 µM (≈ 3.9 to 31.3 µg/mL). Further, the MIC in [7] is 85.8 µM (≈ 31.3 µg/mL); in [8], above 85.8 µM; in assay [9] (setting [27]), 85.8 µM (≈ 31.3 µg/mL); in assay [10], 85.8 µM (≈ 31.3 µg/mL); in assay [11] it was 10.7 µM (≈ 3.9 µg/mL); in assay [12] it was above 85.8 µM. In addition, the MIC in assay [13] was 85.8 µM (≈ 31.3 µg/mL); in assay [14], above 85.8 µM; in [15] (setting [28]) it was 85.8 µM (≈ 31.3 µg/mL); in assay [16] (setting [29]) it was 42.8 µM (≈ 15.6 µg/mL); in assay [17] (setting [28]), 85.8 µM (≈ 31.3 µg/mL); in assay [18], 2.7 µM (≈ 0.984 µg/mL). The MIC in assay [19] is 2.7 µM (≈ 0.984 µg/mL); in assay [20] it was 21.4 µM (≈ 7.8 µg/mL); in assay [21] (setting [30]), 42.8 µM (≈ 15.6 µg/mL); in [22], 5.4 µM (≈ 1.97 µg/mL).
With `CCCCCOCCCCCCNCC(O)(Cn1cncn1)c1ccc(F)cc1F` (stereo unspecified), the MIC in assay [1] (setting [23]) is 4.6 µM (≈ 1.95 µg/mL); in assay [2] it was 9.2 µM (≈ 3.91 µg/mL); in assay [3] (setting [24]), above 73.7 µM; in assay [4], 73.7 µM (≈ 31.3 µg/mL); in assay [5] (setting [25]), 9.2 µM (≈ 3.91 µg/mL); in [6] (setting [26]), 36.7 µM (≈ 15.6 µg/mL). For the same compound, the MIC in assay [7] is 9.2 µM (≈ 3.91 µg/mL); in [8], 18.4 µM (≈ 7.81 µg/mL); in assay [9] (setting [27]), 9.2 to 36.7 µM (≈ 3.91 to 15.6 µg/mL); in assay [10] it was 4.6 µM (≈ 1.95 µg/mL); in assay [11], 0.57 µM (≈ 0.242 µg/mL); in assay [12] it was 18.4 µM (≈ 7.81 µg/mL). Also, the MIC in [13] is above 73.7 µM; in assay [14], 73.7 µM (≈ 31.3 µg/mL); in assay [15] (setting [28]) it was 36.7 µM (≈ 15.6 µg/mL); in [16] (setting [29]), 4.6 µM (≈ 1.95 µg/mL); in assay [17] (setting [28]) it was 73.7 µM (≈ 31.3 µg/mL); in assay [18], 0.28 µM (≈ 0.119 µg/mL). The MIC is 0.28 µM (≈ 0.119 µg/mL) in assay [19], 1.1 µM (≈ 0.467 µg/mL) in assay [20], 4.6 µM (≈ 1.95 µg/mL) in assay [21] (setting [30]) and 0.28 µM (≈ 0.119 µg/mL) in assay [22].
`OC(Cn1cncn1)(Cn1cncn1)c1ccc(F)cc1F` [FLUCONAZOLE]: the MIC in assay [1] was above 102.1 µM; in assay [3], above 408.1 µM; in [5], above 408.1 µM; in [6], above 408.1 µM; in assay [9], “>=102.2 - 204.1 uM”; in [15], above 102.1 µM. Besides, the MIC in assay [16], in assay [17] and in assay [21] was above 102.1 µM throughout. The “MIC=<50” value in [4] is 50.9 µM (≈ 15.6 µg/mL); in assay [10] it was above 102.2 µM; in [11], 6.4 µM (≈ 1.96 µg/mL); in [18], 3.2 µM (≈ 0.98 µg/mL); in [19], 3.2 µM (≈ 0.98 µg/mL); in assay [22], 3.2 µM (≈ 0.98 µg/mL).
As for `CCCCCCN(CCCCCC)CC(O)(Cn1cncn1)c1ccc(F)cc1F` (stereo unspecified), the MIC in assay [1] (setting [23]), in [2], in assay [3] (setting [24]), in [4], in assay [5] (setting [25]) and in assay [6] (setting [26]) was above 74.1 µM in each case. The MIC is above 74.1 µM in assay [7]; above 74.1 µM in assay [8]; above 74.1 µM in assay [9] (setting [27]); above 74.1 µM in assay [10]; 74.1 µM (≈ 31.3 µg/mL) in assay [11]; above 74.1 µM in [12]. Moreover, the MIC in assay [13], in [14], in [15] (setting [28]), in assay [16] (setting [29]), in assay [17] (setting [28]) and in assay [18] was above 74.1 µM each time. Further, the MIC in [19] was above 74.1 µM; in assay [20], above 74.1 µM; in [21] (setting [30]) it was 37.1 µM (≈ 15.7 µg/mL); in assay [22], above 74.1 µM.
